Assay results: ChEMBL document CHEMBL5528018, “Whole cell hydride Meisenheimer complex biotransformation guided optimization of antimycobacterial benzothiazinones” (Eur J Med Chem, 2024)
Values after ≈ are worked out from the molar mass of the structure shown.

How the values were obtained:
[1] = system: Mycobacterium tuberculosis; experiment: Antitubercular activity against Mycobacterium tuberculosis H37Rv by resazurin dye based microtiter plate assay; type: functional
[2] = Cytotoxicity against human HeLa cells assessed as cytolytic effect incubated for 72 hrs by methylene blue staining based colorimetric analysis; type: toxicity, cell-based
[3] = Selectivity index, ratio of CC50 for cytotoxicity against human HeLa cells to MIC for antitubercular activity against Mycobacterium tuberculosis H37Rv; type: toxicity, cell-based; conditions: read-out: Selectivity Index
[4] = Metabolic stability in human liver assessed as intrinsic clearance at 20 uM measured upto 90 mins in presence of NADP regenerating system by high-resolution mass spectrometry; type: ADME, tissue-based; conditions: read-out: CLH
[5] = Metabolic stability in human liver microsomes assessed as intrinsic clearance at 20 uM measured upto 90 mins in presence of NADP regenerating system by high-resolution mass spectrometry; type: ADME, Microsome; conditions: read-out: CLH
[6] = Metabolic stability in human liver microsomes assessed as hepatic extraction ratio at 20 uM measured upto 90 mins in presence of NADP regenerating system by high-resolution mass spectrometry; type: ADME, Microsome; conditions: read-out: ERH
[7] = Metabolic stability in human liver microsomes assessed as half life at 20 uM measured upto 90 mins in presence of NADP regenerating system by high-resolution mass spectrometry; type: ADME, Microsome
[8] = Drug metabolism in CD1 mouse muscle assessed as hydride meisenheimer complex formation by UHPLC-HRMS analysis; type: ADME, tissue-based, Muscle tissue
[9] = Drug metabolism in rat assessed as hydride meisenheimer complex formation by UHPLC-HRMS analysis; type: ADME
[10] = Half life in mouse RAW264.7 cells at 77 uM incubated for 8 hrs by UHPLC-HRMS analysis; type: ADME, cell-based
[11] = Drug metabolism in cattle assessed as hydride meisenheimer complex formation by UHPLC-HRMS analysis; type: ADME, Bos taurus
[12] = Drug metabolism in CD1 mouse kidney assessed as hydride meisenheimer complex formation by UHPLC-HRMS analysis; type: ADME, tissue-based
[13] = Tmax in mouse RAW264.7 cells at 77 uM incubated for 8 hrs by UHPLC-HRMS analysis; type: ADME, cell-based
[14] = Drug metabolism in CD1 mouse liver assessed as hydride meisenheimer complex formation by UHPLC-HRMS analysis; type: ADME, tissue-based
[15] = Drug metabolism in CD1 mouse blood assessed as hydride meisenheimer complex formation by UHPLC-HRMS analysis; type: ADME, tissue-based
[16] = Drug metabolism in sheep assessed as hydride meisenheimer complex formation by UHPLC-HRMS analysis; type: ADME, Ovis aries
[17] = Drug metabolism in CD1 mouse heart assessed as hydride meisenheimer complex formation by UHPLC-HRMS analysis; type: ADME, tissue-based
[18] = Drug metabolism in CD1 mouse brain assessed as hydride meisenheimer complex formation by UHPLC-HRMS analysis; type: ADME, tissue-based
[19] = Drug metabolism in CD1 mouse lung assessed as hydride meisenheimer complex formation by UHPLC-HRMS analysis; type: ADME, tissue-based
[20] = Drug metabolism in goat assessed as hydride meisenheimer complex formation by UHPLC-HRMS analysis; type: ADME, Capra hircus
[21] = Cmax in mouse RAW264.7 cells at 77 uM incubated for 8 hrs by UHPLC-HRMS analysis; type: ADME, cell-based
[22] = Drug metabolism in CD1 mouse spleen assessed as hydride meisenheimer complex formation by UHPLC-HRMS analysis; type: ADME, tissue-based
[23] = Tmax in BALB/cAnNCrl mouse at 250 mg/kg, po measured upto 24 hrs by UHPLC-HRMS analysis; type: ADME, organism-based; conditions: in vivo
[24] = system: Mycobacterium tuberculosis; experiment: Antitubercular activity against Mycobacterium tuberculosis H37Rv infected in BALB/c mouse assessed as reduction of colony forming unit in spleen administered once daily for 6 weeks by agar dilution method; type: functional, organism-based; conditions: dose 25-250 mg/kg/day, route po
[25] = Toxicity in BALB/c mouse infected with Mycobacterium tuberculosis H37Rv assessed as drug tolerance at 25 to 250 mg/kg/day, po qd administered for 6 weeks; type: organism-based; conditions: in vivo, 1008 h, dose 25-250 mg/kg/day
[26] = Stability in mouse RAW264.7 cells assessed as parent compound remaining at 77 uM after 8 hrs by UHPLC-HRMS analysis; type: ADME, cell-based; conditions: read-out: Stability
[27] = Drug metabolism in BALB/c cAnNCrl mouse assessed as HMC metabolite formation at 250 mg/kg, po measured upto 24 hrs by UHPLC-HRMS analysis; type: ADME, organism-based; conditions: in vivo
[28] = Apparent oral clearance in BALB/cAnNCrl mouse at 250 mg/kg measured upto 24 hrs by UHPLC-HRMS analysis; type: ADME, organism-based; conditions: in vivo
[29] = Cmax in BALB/cAnNCrl mouse at 250 mg/kg, po measured upto 24 hrs by UHPLC-HRMS analysis; type: ADME, organism-based; conditions: in vivo
[30] = Apparent volume of distribution during terminal phase in BALB/cAnNCrl mouse at 250 mg/kg, po measured upto 24 hrs by UHPLC-HRMS analysis; type: ADME, organism-based; conditions: in vivo, read-out: Vz/F
[31] = AUC (0 to infinity) in BALB/cAnNCrl mouse at 250 mg/kg, po measured upto 24 hrs by UHPLC-HRMS analysis; type: ADME, organism-based; conditions: in vivo
[32] = system: Mycobacterium tuberculosis; experiment: Antitubercular activity against Mycobacterium tuberculosis H37Rv infected in BALB/c mouse assessed as reduction of colony forming unit in lung administered once daily for 6 weeks by agar dilution method; type: functional, organism-based; conditions: dose 25-250 mg/kg/day, route po
[33] = Half life in BALB/cAnNCrl mouse at 250 mg/kg, po measured upto 24 hrs by UHPLC-HRMS analysis; type: ADME, organism-based; conditions: in vivo

| Compound | MIC [1] [µM] | CC50 at 72 h [2] [µM] | selectivity ratio [3] | CLint scaled at 20 µM [4] [mL/min/kg] | microsomal CLint at 20 µM [5] [µL/min/mg] | hepatic extraction ratio at 1.5 h, 20 µM [6] | half-life at 20 µM [7] [h] | other results |
| --- | --- | --- | --- | --- | --- | --- | --- | --- |
| O=c1nc(N2CCN(S(=O)(=O)c3ccc(OC(F)(F)F)cc3)CC2)sc2c([N+](=O)[O-])cc(C(F)(F)F)cc12 | 0.108 (≈ 0.0631 µg/mL) | 43 | 397 |  |  |  |  |  |
| Cc1c(C(F)(F)F)cc([N+](=O)[O-])c2sc(N3CCN(CC4CCCCC4)CC3)nc(=O)c12 | 0.056 (≈ 0.0263 µg/mL) | 53 | 50000 | 39 | 33.7 | 0.661 | 0.692 |  |
| Cc1c(C(F)(F)F)c(C)c2c(=O)nc(N3CCC4(CC3)OC[C@H](C)O4)sc2c1[N+](=O)[O-] | 4.35 (≈ 2 µg/mL) | 93 | 21 |  |  |  |  |  |
| Cc1c(C(F)(F)F)cc2c(=O)nc(N3CCN(CC4CCCCC4)CC3)sc2c1[N+](=O)[O-] | 0.797 (≈ 0.375 µg/mL) | 64 | 80 |  |  |  |  |  |
| Cc1c(C(F)(F)F)cc2c(=O)nc(N3CCN(S(=O)(=O)c4ccc(OC(F)(F)F)cc4)CC3)sc2c1[N+](=O)[O-] | > 6.68 | > 84 | 13 |  |  |  |  |  |
| C#Cc1c(C(F)(F)F)cc([N+](=O)[O-])c2sc(N3CCC4(CC3)OC[C@H](C)O4)nc(=O)c12 | > 8.78 | 9 | 1 |  |  |  |  |  |
| Cc1c(C(F)(F)F)cc([N+](=O)[O-])c2sc(N3CCN(S(=O)(=O)c4ccc(OC(F)(F)F)cc4)CC3)nc(=O)c12 | > 6.68 | > 84 | 13 |  |  |  |  |  |
| O=c1nc(N2CCN(CC3CCCCC3)CC2)sc2c([N+](=O)[O-])cc(C(F)(F)F)cc12 [MACOZINONE] | 0.0011 (≈ 0.000502 µg/mL) | > 110 | 100000 |  |  |  |  |  |
| C[C@H]1COC2(CCN(c3nc(=O)c4cc(C(F)(F)F)cc([N+](=O)[O-])c4s3)CC2)O1 [BTZ-043] | 0.00348 (≈ 0.0015 µg/mL) | > 120 | 33300 |  |  |  |  | Drug metabolism [8]: Metabolite_Detected; Drug metabolism [9]: Metabolite_Detected; half-life at 77 µM [10]: 2.3 h; Drug metabolism [11]: Metabolite_Detected; Drug metabolism [12]: Metabolite_Detected; Tmax at 77 µM [13]: 0 h; Drug metabolism [14]: Metabolite_Detected; Drug metabolism [15]: Metabolite_Detected; Drug metabolism [16]: Metabolite_Detected; Drug metabolism [17]: Metabolite_Detected; Drug metabolism [18]: Metabolite_Detected; Drug metabolism [19]: Metabolite_Detected; Drug metabolism [20]: Metabolite_Detected; Cmax at 77 µM [21]: 3950 ng/mL; Drug metabolism [22]: Metabolite_Detected |
| Cc1c(C(F)(F)F)cc([N+](=O)[O-])c2sc(N3CCC4(CC3)OC[C@H](C)O4)nc(=O)c12 | 0.053 (≈ 0.0236 µg/mL) | > 110 | 8330 | 15.9 | 13.7 | 0.443 | 1.7 | Tmax [23]: 0.5 h; Activity [24]: Dose-Dependent Effect; Activity [25]: Non-Toxic; remaining at 8 h, 77 µM [26]: 76.6%; half-life at 77 µM [10]: 20.2 h; Tmax at 77 µM [13]: 0.17 h; Drug metabolism [27]: Metabolite_Notdetected; CL/F [28]: 267 mL/min/kg; Cmax [29]: 2410 ng/mL; Vd/F [30]: 108 L/kg; AUC [31]: 15600 ng·h/mL; Activity [32]: Dose-Dependent Effect; Cmax at 77 µM [21]: 504 ng/mL; half-life [33]: 4.6 h |
| Cc1c(C(F)(F)F)cc2c(=O)nc(N3CCC(Oc4ccc(OC(F)(F)F)cc4)CC3)sc2c1[N+](=O)[O-] | 3.64 (≈ 2 µg/mL) | > 91 | 25 | 23.8 | 20.6 | 0.543 | 1.13 |  |
| Cc1c(C(F)(F)F)cc2c(=O)nc(N3CCC4(CC3)OC[C@H](C)O4)sc2c1[N+](=O)[O-] | 0.842 (≈ 0.375 µg/mL) | 87 | 104 | 9.8 | 8.5 | 0.329 | 2.75 |  |
| C[C@H]1COC2(CCN(c3nc(=O)c4cc(C(F)(F)F)cc(N)c4s3)CC2)O1 |  |  |  |  |  |  |  | half-life at 77 µM [10]: 13 h; Tmax at 77 µM [13]: 8 h; Cmax at 77 µM [21]: 2000 ng/mL |
| O=c1nc(N2CCC(Oc3ccc(OC(F)(F)F)cc3)CC2)sc2c([N+](=O)[O-])cc(C(F)(F)F)cc12 | 0.0056 (≈ 0.003 µg/mL) | > 93 | 16700 |  |  |  |  |  |
| Cc1c(C(F)(F)F)cc([N+](=O)[O-])c2sc(N3CCC(Oc4ccc(OC(F)(F)F)cc4)CC3)nc(=O)c12 | 0.91 (≈ 0.5 µg/mL) | > 91 | 100 | 47.1 | 40.8 | 0.702 | 0.572 |  |
